Source: publication PMC13077286, “Potentiation of the antimycobacterial activity of bedaquiline, clofazimine, and doxycycline against Mycobacterium smegmatis by several natural product-based compounds is putatively via efflux inhibition” (Open Research Africa, 2026)
Where a name gives a salt, the structure may show the parent alone. Read-outs that look alike come from different tables or passages of the source.

Tests used:
[1] = test system: Mycobacterium smegmatis (Msm) strain ATCC 607; test: Two-dimensional checkerboard assay incorporating resazurin (REMA MIC) against Msm; assay type: cell-based; conditions: for MIC99 / MIC: compound tested singly, read-out: MIC 99 singly; for MIC 99 fold reduction of anti-TB drug BDQ: BDQ in combination with the labelled EI; for MIC 99 fold reduction of anti-TB drug DOX: DOX in combination with the labelled EI; for FICI: synergy FICI ≤ 0.5; for MIC 99 fold reduction of anti-TB drug CFZ: CFZ in combination with the labelled EI
[2] = MTT cytotoxicity assay on Vero E6 cells; assay type: cell-based, African green monkey; conditions: African green monkey
Protocol: (§1) To determine the cytotoxicity of the compounds, Vero E6 cells (derived from the African green monkey kidney cells) were used and the MTT assay was performed as described by [Mosmann (1983)]. The Vero E6 cells were sourced from the American Type Culture Collection (ATCC, Manassas, Virginia, USA). The cells were maintained in Eagle’s Minimum Essential Medium (EMEM) supplemented with 10% fetal bovine serum (FBS; […] Panasonic, Japan) until 80% confluency was achieved, after which they were sub-cultured for cytotoxicity evaluation. At 80% confluency, cells were washed with phosphate-buffered saline (PBS; […] Trypsin activity was neutralized by adding supplemented EMEM. Cells were stained with trypan blue (Loba Chemie, India) and counted using a hemocytometer, and the cell suspensions were adjusted with supplemented EMEM to a final density of 1 × 10 ^5 cells/mL. […] After 24 hrs, the culture medium was replaced with fresh treatment medium with dose dilutions. […] After 48 hrs incubation, the media was removed, and the cells were rinsed with PBS (Sigma-Aldrich, USA). Fresh EMEM supplemented with MTT dye (5 mg […]/mL in PBS; Solarbio, China) was added and incubated for 4 hrs. The MTT solution was then discarded, and formazan crystals were completely dissolved with 100 μL of 100% DMSO (Finar Chemicals, India). Absorbance readings were taken at 570 nm using a microplate reader (Thermo Fisher Scientific, USA). All experiments were performed with three technical replicates. Cell viability (%) was determined using the formula: Cell viability(%)=[Absorbance of treated cells/Absorbance of untreated cells]×100 […]

[3] = test system: Vero E6 cells; test: MTT cytotoxicity assay on Vero E6 cells; assay type: cell-based, African green monkey
Protocol: as §1

[4] = Mycolicibacterium smegmatis, ATCC607, Msm
[5] = Msm, labelled EI in combination with BDQ
[6] = Msm, labelled EI in combination with CFZ
[7] = Msm, labelled EI in combination with DOX
[8] = Vero E6 cells, 48 hrs exposure, MTT, read-out: CC 50

SMILES	FIC (anti-TB drug) ([1]; Msm, in combination with BER)	MIC 99 combination (anti-TB drug) ([1]; Msm, in combination with BER)	MIC 99 combination (anti-TB drug) ([1]; Msm, in combination with LYO)	FIC (anti-TB drug) ([1]; Msm, in combination with LYO-3)	MIC 99 combination (anti-TB drug) ([1]; Msm, in combination with LYO-3)	FIC (anti-TB drug) ([1]; Msm, in combination with PIP)	MIC 99 combination (anti-TB drug) ([1]; Msm, in combination with PIP)	FIC (anti-TB drug) ([1]; Msm, in combination with RES)	MIC 99 combination (anti-TB drug) ([1]; Msm, in combination with RES)	MIC99 [1, 4]	MIC 99 fold reduction of anti-TB drug BDQ ([1]; Msm)	MIC 99 fold reduction of anti-TB drug DOX ([1]; Msm)	FIC (EI) ([1]; Msm, in combination with BDQ)	MIC 99 combination (EI) ([1]; Msm, in combination with BDQ)	FIC (EI) ([1]; Msm, in combination with CFZ)	MIC 99 combination (EI) ([1]; Msm, in combination with CFZ)	FIC (EI) ([1]; Msm, in combination with DOX)	MIC 99 combination (EI) ([1]; Msm, in combination with DOX)	FICI [1, 5]	FICI [1, 6]	other results
C[C@H]1c2cccc(O)c2C(=O)C2=C(O)[C@]3(O)C(=O)C(C(N)=O)=C(O)[C@@H](N(C)C)[C@@H]3[C@@H](O)[C@@H]21 [DOX, doxycycline hyclate]	0.063	2.25 µM	2.25 µM	0.063	2.25 µM	0.063	2.25 µM	0.031	1.12 µM	36 µM	–	–	–	–	–	–	–	–	–	–	FIC (anti-TB drug) ([1]; Msm, in combination with LYO): 0.063
COc1cc(C2c3c(cc(OC)c(O)c3OC)CC(CO)C2CO)cc(OC)c1O (centres unmarked) [LYO, lyoniresinol]	–	–	–	–	–	–	–	–	–	200 µM	8 fold	16 fold	0.125	25 µM	1	200 µM	0.125	25 µM	0.18	2	FICI [1, 7]: 0.19; CC50 at 48 h [2, 8]: 318 µM
COC(=O)[C@H]1[C@H]2C[C@@H]3c4[nH]c5cc(OC)ccc5c4CCN3C[C@H]2C[C@@H](OC(=O)c2cc(OC)c(OC)c(OC)c2)[C@@H]1OC [RES, reserpine]	–	–	–	–	–	–	–	–	–	> 2240 µM	2 fold	32 fold	–	>2239.3 µM	–	>2239.3 µM	–	–	–	–	MIC 99 fold reduction of anti-TB drug CFZ ([1]; Msm): 4 fold; MIC [1, 4]: > 2240 µM; Cytotoxicity (in words) [3]: strong cytotoxicity at low micromolar concentrations
COc1cc([C@H]2c3c(cc(OC)c(O)c3OC)C[C@@H](CO)[C@@H]2CO[C@@H]2O[C@H](CO)[C@@H](O)[C@H](O)[C@H]2O)cc(OC)c1O [LYO-3, (+)-lyoniresinol-3-Alpha-O-Beta-D-glucopyranoside]	–	–	–	–	–	–	–	–	–	100 µM	20 fold	16 fold	0.25	24.99 µM	1	99.99 µM	0.25	25 µM	0.3	2	FICI [1, 7]: 0.21; CC50 at 48 h [2, 8]: 604 µM; viability at 48 h ([2]; Vero E6 cells, even at higher concentrations, read-out: Cell viability): > 50%
COc1ccc2cc3[n+](cc2c1OC)CCc1cc2c(cc1-3)OCO2 [BER, Berberine chloride]	–	–	–	–	–	–	–	–	–	110 µM	10 fold	16 fold	0.125	27.62 µM	–	53.99 µM	–	53.99 µM	0.23	2	FICI [1, 7]: 0.31; MIC [1, 4]: 221 µM; CC50 at 48 h [2]: 362 µM
COc1nc2ccc(Br)cc2cc1[C@@H](c1ccccc1)[C@@](O)(CCN(C)C)c1cccc2ccccc12 [BDQ, bedaquiline fumarate]	0.102	0.04 µM	0.09 µM	0.05	0.04 µM	1	0.78 µM	0.5	0.39 µM	0.78 µM	–	–	–	–	–	–	–	–	–	–	MIC ([1]; Msm): 0.39 µM
CC(C)/N=c1\cc2n(-c3ccc(Cl)cc3)c3ccccc3nc-2cc1Nc1ccc(Cl)cc1 [CFZ, clofazimine]	1	0.08 µM	0.08 µM	1	0.08 µM	0.12	0.01 µM	0.25	0.02 µM	0.08 µM	–	–	–	–	–	–	–	–	–	–	FIC (anti-TB drug) ([1]; Msm, in combination with LYO): 1
O=C(/C=C/C=C/c1ccc2c(c1)OCO2)N1CCCCC1 [PIP, piperine]	–	–	–	–	–	–	–	–	–	120 µM	–	16 fold	1	119.99 µM	0.25	29.99 µM	0.25	29.99 µM	2	0.37	MIC 99 fold reduction of anti-TB drug CFZ ([1]; Msm): 8 fold; CC50 at 48 h [2, 8]: 92.5 µM
